Experimental data reported in PMC11470957, “Principles of paralog-specific targeted protein degradation engaging the C-degron E3 KLHDC2” (Nature Communications, 2024).
Like-named read-outs stand apart in the source and are kept apart here.

Target: BRD2 (Homo sapiens, UniProt P25440)
Assay: Western blot of BRD2 levels after cellular dosing
Settings: for remaining activity at 3.09691 µM: Log SJ46420 (uM) 3.09691; for remaining activity at 3.39794 µM: Log SJ46420 (uM) 3.39794; for remaining activity at 3.69897 µM: Log SJ46420 (uM) 3.69897
[1] = PC-3, read-out: BRD2 (DMSO = 100), PC3 cells, Rep1, Rep2
[2] = U2OS, read-out: BRD2 (DMSO = 100), U2OS KO/Rescue cells, Rep1, Rep2

Sequence of BRD2 (P25440 whole entry): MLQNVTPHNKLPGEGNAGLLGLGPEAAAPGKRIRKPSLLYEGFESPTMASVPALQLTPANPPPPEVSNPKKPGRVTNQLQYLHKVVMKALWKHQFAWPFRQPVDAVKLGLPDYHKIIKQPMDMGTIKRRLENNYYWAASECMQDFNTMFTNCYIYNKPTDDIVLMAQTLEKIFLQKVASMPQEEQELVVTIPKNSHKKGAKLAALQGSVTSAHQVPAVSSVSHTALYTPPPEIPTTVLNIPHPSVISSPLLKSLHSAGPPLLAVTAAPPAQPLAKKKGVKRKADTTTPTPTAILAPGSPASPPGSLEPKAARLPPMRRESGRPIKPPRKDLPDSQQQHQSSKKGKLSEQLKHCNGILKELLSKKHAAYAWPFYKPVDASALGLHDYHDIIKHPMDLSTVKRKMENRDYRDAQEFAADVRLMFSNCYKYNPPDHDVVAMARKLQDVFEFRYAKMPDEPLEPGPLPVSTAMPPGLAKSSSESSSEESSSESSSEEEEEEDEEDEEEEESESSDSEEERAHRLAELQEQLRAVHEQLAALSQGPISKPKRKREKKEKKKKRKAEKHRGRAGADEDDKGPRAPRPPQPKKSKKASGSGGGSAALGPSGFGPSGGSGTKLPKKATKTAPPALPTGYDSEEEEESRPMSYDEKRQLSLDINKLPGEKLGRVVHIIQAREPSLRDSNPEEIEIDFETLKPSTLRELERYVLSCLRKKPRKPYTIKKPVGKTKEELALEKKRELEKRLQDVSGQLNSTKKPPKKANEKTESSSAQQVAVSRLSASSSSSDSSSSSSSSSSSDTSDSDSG

In the case of `COC(=O)CNC(=O)Cc1csc(-c2ccc3cccc(OCCN4CCN(C(=O)C[C@@H]5N=C(c6ccc(Cl)cc6)c6c(sc(C)c6C)-n6c(C)nnc65)CC4)c3c2)n1` [SJ46420], the remaining activity at 3.09691 µM [1] is reported as 85.7%, the remaining activity at 3.39794 µM [1] is reported as 86.6% and the remaining activity at 3.69897 µM [1] is reported as 86.5%. For the same compound, the remaining activity at 4 µM (PC-3, read-out: BRD2 (DMSO = 100), PC3 cells, Log SJ46420 (uM) 4, Rep1, Rep2) was 81.6%, the remaining activity at 1 µM (SK-BR-3, 2 h, read-out: BRD2 level relative to DMSO (100%), SKBR3, 1µM, 2hr, Fig S6g) was 71 ± 3.9% and the remaining activity at 5 µM (SK-BR-3, 2 h, read-out: BRD2 level relative to DMSO (100%), SKBR3, 5µM, 2hr, Fig S6g) was 69 ± 10%. It also gave a remaining activity at 1 µM (SK-BR-3, 2 h, read-out: BRD2 level, Western blot quantification (DMSO = 100), Fig S6g, SKBR3 Time course, 1 uM, 2hr) of 67.4%, a remaining activity at 5 µM (SK-BR-3, 2 h, read-out: BRD2 level, Western blot quantification (DMSO = 100), Fig S6g, SKBR3 Time course, 5 uM, 2hr) of 61.5% and a remaining activity at 1 µM (SK-BR-3, 4 h, read-out: BRD2 level relative to DMSO (100%), SKBR3, 1µM, 4hr, Fig S6g) of 82 ± 4%. The remaining activity at 5 µM (SK-BR-3, 4 h, read-out: BRD2 level relative to DMSO (100%), SKBR3, 5µM, 4hr, Fig S6g) was 83 ± 6.1%, the remaining activity at 5 µM (SK-BR-3, 4 h, read-out: BRD2 level relative to DMSO (100%), SKBR3, 5µM, 4hr, Fig S6j) was 85 ± 7.3% and the remaining activity at 1 µM (SK-BR-3, 4 h, read-out: BRD2 level, Western blot quantification (DMSO = 100), Fig S6g, SKBR3 Time course, 1 uM, 4hr) was 79.4%. It also gave a remaining activity at 5 µM (SK-BR-3, 4 h, read-out: BRD2 level, Western blot quantification (DMSO = 100), Fig S6g, SKBR3 Time course, 5 uM, 4hr) of 79.5%, a remaining activity at 1 µM (SK-BR-3, 8 h, read-out: BRD2 level relative to DMSO (100%), SKBR3, 1µM, 8hr, Fig S6g) of 81 ± 7.6% and a remaining activity at 5 µM (SK-BR-3, 8 h, read-out: BRD2 level relative to DMSO (100%), SKBR3, 5µM, 8hr, Fig S6g) of 90 ± 9.8%. It also gave a remaining activity at 1 µM (SK-BR-3, 8 h, read-out: BRD2 level, Western blot quantification (DMSO = 100), Fig S6g, SKBR3 Time course, 1 uM, 8hr) of 76.3%, a remaining activity at 5 µM (SK-BR-3, 8 h, read-out: BRD2 level, Western blot quantification (DMSO = 100), Fig S6g, SKBR3 Time course, 5 uM, 8hr) of 97.9% and a remaining activity at 5 µM (SK-BR-3, read-out: BRD2 level, Western blot quantification (DMSO = 100), Fig S6i, SKBR3, 5uM) of 90.6%. The “BRD2 Dmax” value (U2OS KO/Rescue, 24 h dose) was ~ 100%, the remaining activity at 5 µM (U2OS, 2 h, read-out: BRD2 level relative to DMSO (100%), U2OS, 5µM, 2hr, Fig S6h) was 102 ± 6.9% and the remaining activity at 5 µM (U2OS, 2 h, read-out: BRD2 level, Western blot quantification (DMSO = 100), Fig S6h, U2OS Time course, 5uM, 2hr) was 108%. For the same compound, the remaining activity at 5 µM (U2OS, 4 h, read-out: BRD2 level relative to DMSO (100%), U2OS, 5µM, 4hr, Fig S6h) was 104 ± 6.4%, the remaining activity at 5 µM (U2OS, 4 h, read-out: BRD2 level, Western blot quantification (DMSO = 100), Fig S6h, U2OS Time course, 5uM, 4hr) was 109% and the remaining activity at 5 µM (U2OS, 8 h, read-out: BRD2 level relative to DMSO (100%), U2OS, 5µM, 8hr, Fig S6i) was 120 ± 3.4%. It also gave a remaining activity at 5 µM (U2OS, 8 h, read-out: BRD2 level relative to DMSO (100%), U2OS, 5µM, 8hr, Fig S6h) of 106 ± 8.4%, a remaining activity at 5 µM (U2OS, 8 h, read-out: BRD2 level, Western blot quantification (DMSO = 100), Fig S6h, U2OS Time course, 5uM, 8hr) of 112% and a remaining activity at 5 µM (U2OS, 24 h, read-out: BRD2 level relative to DMSO (100%), U2OS DC2KO (KLHDC2 knockout), 5µM, 24 h, Fig 6b) of 77 ± 2%. For the same compound, the remaining activity at 0.16 µM (U2OS, 24 h, read-out: BRD2 level relative to DMSO (100%), U2OS KO/Rescue, 0.16µM, 24 h, Fig S6d) was 94 ± 6.9%, the remaining activity at 0.31 µM (U2OS, 24 h, read-out: BRD2 level relative to DMSO (100%), U2OS KO/Rescue, 0.31µM, 24 h, Fig S6d) was 77 ± 6.6% and the remaining activity at 0.63 µM (U2OS, 24 h, read-out: BRD2 level relative to DMSO (100%), U2OS KO/Rescue, 0.63µM, 24 h, Fig S6d) was 63 ± 3.8%. It also gave a remaining activity at 1 µM (U2OS, 24 h, read-out: BRD2 level relative to DMSO (100%), U2OS KO/Rescue, 1µM + co-dosing 1µM MLN4924, 24 h, Fig 6d) of 350 ± 120%, a remaining activity at 1 µM (U2OS, 24 h, read-out: BRD2 level relative to DMSO (100%), U2OS KO/Rescue, 1µM, 24 h, Fig 6c) of 88 ± 8.4% and a remaining activity at 1 µM (U2OS, 24 h, read-out: BRD2 level relative to DMSO (100%), U2OS KO/Rescue, 1µM, 24 h, Fig 6d) of 68 ± 17%. It also gave a remaining activity at 1.3 µM (U2OS, 24 h, read-out: BRD2 level relative to DMSO (100%), U2OS KO/Rescue, 1.3µM, 24 h, Fig S6d) of 54 ± 6.7%, a remaining activity at 2.5 µM (U2OS, 24 h, read-out: BRD2 level relative to DMSO (100%), U2OS KO/Rescue, 2.5µM, 24 h, Fig S6d) of 37 ± 9.7% and a remaining activity at 5 µM (U2OS, 24 h, read-out: BRD2 level relative to DMSO (100%), U2OS KO/Rescue, 5µM, 24 h, Fig S6d) of 12 ± 2.2%. It also gave a remaining activity at 5 µM (U2OS, 24 h, read-out: BRD2 level relative to DMSO (100%), U2OS, 5µM, 24 h, Fig 6b) of 87 ± 5%, a remaining activity at 5 µM (U2OS, 24 h, read-out: BRD2 level relative to DMSO (100%), U2OS, 5µM, 24hr, Fig S6h) of 77 ± 4.3% and a remaining activity at 5 µM (U2OS, 24 h, read-out: BRD2 level, Western blot quantification (DMSO = 100), Fig S6h, U2OS Time course, 5uM, 24hr) of 79.8%. For the same compound, the remaining activity at 1.59176 µM (U2OS, read-out: BRD2 (DMSO = 100), U2OS KO/Rescue cells, Log SJ46420 (uM) 1.59176, Rep1, Rep2) was 102%, the remaining activity at 1.89279 µM (U2OS, read-out: BRD2 (DMSO = 100), U2OS KO/Rescue cells, Log SJ46420 (uM) 1.89279, Rep1, Rep2) was 99% and the remaining activity at 2.19382 µM (U2OS, read-out: BRD2 (DMSO = 100), U2OS KO/Rescue cells, Log SJ46420 (uM) 2.19382, Rep1, Rep2) was 82.2%. It also gave a remaining activity at 2.49485 µM (U2OS, read-out: BRD2 (DMSO = 100), U2OS KO/Rescue cells, Log SJ46420 (uM) 2.49485, Rep1, Rep2) of 66.6%, a remaining activity at 2.79588 µM (U2OS, read-out: BRD2 (DMSO = 100), U2OS KO/Rescue cells, Log SJ46420 (uM) 2.79588, Rep1, Rep2) of 49.5% and a remaining activity at 3.09691 µM [2] of 30.5%. The remaining activity at 3.39794 µM [2] was 13.8%, the remaining activity at 3.69897 µM [2] was 1.16% and the Dmax (U2OS, read-out: BRD2 Dmax, U2OS KO/Rescue, 24 h dose) was 99.3%. The remaining activity at 5 µM (U2OS, read-out: BRD2 level, Western blot quantification (DMSO = 100), Fig 6b, U2OS, 5 uM) was 90.7%.
